From patent US8916551B2, “Heterocyclic compound and use thereof” (Takeda Pharmaceutical Company Limited, priority 2010, dated 2014)
Where a name gives a salt, the structure may show the parent alone.

What was measured:
[1] = target: T1, AMPA receptor (human GluR1 flip/stargazin expressed in CHO-K1 cells) (Homo sapiens, UniProt P42261); assay: AMPA receptor function enhancing activity using calcium influx as index; assay type: cell-based; settings: test compound 30 μM with glutamic acid final 3 mM, change in fluorescence in 3 min, 100% = 3 mM glutamic acid + 300 μM cyclothiazide, 0% = 3 mM glutamic acid only
T1 construct: expressed in transfected cells; host or cells: CHO-K1
Method in brief: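 CHO-K1 clone stably co-expressing human GluR1 flip and stargazin, loaded with Calcium 4 dye plus probenecid. Compound at 30 μM was added with glutamate (3 mM final) and fluorescence change followed over 3 min. Activity is expressed as % of the 3 mM glutamate plus 300 μM cyclothiazide response, with glutamate alone as 0%.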

T1 sequence (P42261 19-906 isoform P42261-2 limits assumed): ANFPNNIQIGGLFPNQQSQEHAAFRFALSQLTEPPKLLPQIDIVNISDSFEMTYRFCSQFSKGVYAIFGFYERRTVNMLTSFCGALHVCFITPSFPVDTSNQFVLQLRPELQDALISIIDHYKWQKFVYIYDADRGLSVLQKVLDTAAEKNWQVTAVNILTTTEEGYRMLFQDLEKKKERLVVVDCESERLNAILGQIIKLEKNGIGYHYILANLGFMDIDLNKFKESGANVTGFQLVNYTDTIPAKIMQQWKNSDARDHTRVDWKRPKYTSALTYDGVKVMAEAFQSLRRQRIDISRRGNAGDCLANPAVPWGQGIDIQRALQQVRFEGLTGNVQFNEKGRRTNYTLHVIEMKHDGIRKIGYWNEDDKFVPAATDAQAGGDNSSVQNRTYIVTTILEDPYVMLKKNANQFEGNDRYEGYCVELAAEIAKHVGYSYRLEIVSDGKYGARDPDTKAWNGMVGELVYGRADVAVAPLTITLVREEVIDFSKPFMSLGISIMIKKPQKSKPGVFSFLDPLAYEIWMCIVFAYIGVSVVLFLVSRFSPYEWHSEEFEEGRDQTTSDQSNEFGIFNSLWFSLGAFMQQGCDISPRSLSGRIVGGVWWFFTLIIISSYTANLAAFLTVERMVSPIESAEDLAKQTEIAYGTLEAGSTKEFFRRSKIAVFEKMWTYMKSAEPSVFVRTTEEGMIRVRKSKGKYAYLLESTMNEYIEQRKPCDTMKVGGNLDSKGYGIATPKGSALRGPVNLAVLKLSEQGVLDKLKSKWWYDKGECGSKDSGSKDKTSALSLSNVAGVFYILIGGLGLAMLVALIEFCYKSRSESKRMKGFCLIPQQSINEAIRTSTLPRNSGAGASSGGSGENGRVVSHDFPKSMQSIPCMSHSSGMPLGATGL
T1 sequence (Q9Y698 whole entry partner): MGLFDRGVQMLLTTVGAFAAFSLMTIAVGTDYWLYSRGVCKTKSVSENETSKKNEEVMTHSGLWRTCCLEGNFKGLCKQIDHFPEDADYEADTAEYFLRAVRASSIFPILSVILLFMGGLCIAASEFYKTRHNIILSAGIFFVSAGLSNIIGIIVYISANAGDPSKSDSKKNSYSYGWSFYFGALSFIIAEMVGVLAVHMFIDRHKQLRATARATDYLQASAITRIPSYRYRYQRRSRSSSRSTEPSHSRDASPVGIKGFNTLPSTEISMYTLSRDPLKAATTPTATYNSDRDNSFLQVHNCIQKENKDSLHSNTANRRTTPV

| Compound | melting point | activity (%) [1] |
| --- | --- | --- |
| CCC(C)c1ccc(C2=CC=CN3CCS(=O)(=O)N=C23)cc1 (stereo not shown) [Example 32, 9-[4-(1-methylpropyl)phenyl]-3,4-dihydropyrido[2,1-c][1,2,4]thiadiazine 2,2-dioxide] | 237 to 239 °C | – |
| CC(C)Oc1ccc(C2=CC=CN3CCS(=O)(=O)N=C23)cc1 [Example 33, 9-[4-(1-methylethoxy)phenyl]-3,4-dihydropyrido[2,1-c][1,2,4]thiadiazine 2,2-dioxide] | 245 to 247 °C | – |
| CC(C)(C)c1ccc(C2=CC=CN3CCS(=O)(=O)N=C23)cc1 [Example 35, 9-(4-tert-butylphenyl)-3,4-dihydropyrido[2,1-c][1,2,4]thiadiazine 2,2-dioxide] | 291 to 292 °C | – |
| CC(C)(C)c1ccc(C2CCCN3CCS(=O)(=O)N=C23)cc1 (stereo not shown) [Example 38, 9-(4-tert-butylphenyl)-3,4,6,7,8,9-hexahydropyrido[2,1-c][1,2,4]thiadiazine 2,2-dioxide] | 232 to 236 °C | – |
| O=C(c1ccccc1)c1ccc(C2=CC=CN3CCS(=O)(=O)N=C23)cc1 [Example 298, [4-(2,2-dioxido-3,4-dihydropyrido[2,1-c][1,2,4]thiadiazin-9-yl)phenyl](phenyl)methanone] | – | 99% |
| O=S1(=O)CCN2C=CC=C(c3ccc(-n4nc(C(F)(F)F)cc4C4CC4)cc3)C2=N1 [Example 299, 9-{4-[5-cyclopropyl-3-(trifluoromethyl)-1H-pyrazol-1-yl]phenyl}-3,4-dihydropyrido[2,1-c][1,2,4]thiadiazine 2,2-dioxide] | – | 88% |
| Cc1cc(C(F)(F)F)nn1-c1ccc(C2=CC=CN3CCS(=O)(=O)N=C23)cc1 [Example 300, 9-{4-[5-methyl-3-(trifluoromethyl)-1H-pyrazol-1-yl]phenyl}-3,4-dihydropyrido[2,1-c][1,2,4]thiadiazine 2,2-dioxide] | – | 93% |
| O=S1(=O)CCN2CCCC(c3ccc(-n4nc(C(F)(F)F)cc4C4CC4)cc3)C2=N1 (stereo not shown) [Example 301, 9-{4-[5-cyclopropyl-3-(trifluoromethyl)-1H-pyrazol-1-yl]phenyl}-3,4,6,7,8,9-hexahydropyrido[2,1-c][1,2,4]thiadiazine 2,2-dioxide] | – | 76% |
| O=S1(=O)CCN2CCCC(COc3ccc4c(c3)CCCC4)C2=N1 (stereo not shown) [Example 303, 9-[(5,6,7,8-tetrahydronaphthalen-2-yloxy)methyl]-3,4,6,7,8,9-hexahydropyrido[2,1-c][1,2,4]thiadiazine 2,2-dioxide] | – | 82% |
| O=C(c1ccccc1)c1ccc(C2CCCN3CCS(=O)(=O)N=C23)cc1 (stereo not shown) [Example 304, [4-(2,2-dioxido-3,4,6,7,8,9-hexahydropyrido[2,1-c][1,2,4]thiadiazin-9-yl)phenyl](phenyl)methanone] | – | 87% |
| COc1cccc(C(=O)c2ccc(C3=CC=CN4CCS(=O)(=O)N=C34)cc2)c1 [Example 306, [4-(2,2-dioxido-3,4-dihydropyrido[2,1-c][1,2,4]thiadiazin-9-yl)phenyl](3-methoxyphenyl)methanone] | – | 89% |
| O=S1(=O)CCN2C=CC=C(c3ccc(Oc4ccc5c(c4)OCC5)cc3)C2=N1 [Example 313, 9-[4-(2,3-dihydro-1-benzofuran-6-yloxy)phenyl]-3,4-dihydropyrido[2,1-c][1,2,4]thiadiazine 2,2-dioxide] | – | 95% |
| COc1cc(Oc2ccc(C3=CC=CN4CCS(=O)(=O)N=C34)cc2)ccc1F [Example 316, 9-[4-(4-fluoro-3-methoxyphenoxy)phenyl]-3,4-dihydropyrido[2,1-c][1,2,4]thiadiazine 2,2-dioxide] | – | 89% |
| O=S1(=O)CCN2CCCC(c3ccc(C4(c5ccccc5)CCC4)cc3)C2=N1 (stereo not shown) [Example 321, 9-[4-(1-phenylcyclobutyl)phenyl]-3,4,6,7,8,9-hexahydropyrido[2,1-c][1,2,4]thiadiazine 2,2-dioxide] | – | 64% |
| CC(F)(F)c1ccc(Oc2ccc(C3=CC=CN4CCS(=O)(=O)N=C34)cc2)cc1 [Example 323, 9-{4-[4-(1,1-difluoroethyl)phenoxy]phenyl}-3,4-dihydropyrido[2,1-c][1,2,4]thiadiazine 2,2-dioxide] | – | 85% |
| Cc1ccc(Cc2ccc(C3CCCN4CCS(=O)(=O)N=C34)cc2)cc1 (stereo not shown) [Example 324, 9-[4-(4-methylbenzyl)phenyl]-3,4,6,7,8,9-hexahydropyrido[2,1-c][1,2,4]thiadiazine 2,2-dioxide] | – | 63% |
| CC(C)(c1ccccc1)c1ccc(C2=CC=CN3CCS(=O)(=O)N=C23)cc1 [Example 325, 9-[4-(1-methyl-1-phenylethyl)phenyl]-3,4-dihydropyrido[2,1-c][1,2,4]thiadiazine 2,2-dioxide] | – | 99% |
| Cc1ccc(C(C)(C)c2ccc(C3=CC=CN4CCS(=O)(=O)N=C34)cc2)cc1 [Example 329, 9-{4-[1-methyl-1-(4-methylphenyl)ethyl]phenyl}-3,4-dihydropyrido[2,1-c][1,2,4]thiadiazine 2,2-dioxide] | – | 82% |
| O=S1(=O)CCN2C=CN=C(c3ccc(-c4ccccc4)c(F)c3)C2=N1 [Example 344, 9-(2-fluorobiphenyl-4-yl)-3,4-dihydropyrazino[2,1-c][1,2,4]thiadiazine 2,2-dioxide] | – | 74% |

| Compound | melting point | activity (%) [1] |
| --- | --- | --- |
| O=S1(=O)CCN2CCNC(c3ccc(-c4ccccc4)c(F)c3)C2=N1 (stereo not shown) [Example 345, 9-(2-fluorobiphenyl-4-yl)-3,4,6,7,8,9-hexahydropyrazino[2,1-c][1,2,4]thiadiazine 2,2-dioxide] | – | 63% |
| O=S1(=O)CCN2CCCC(c3ccc(Oc4ccccc4)c(F)c3)C2=N1 (stereo not shown) [Example 347, 9-(3-fluoro-4-phenoxyphenyl)-3,4,6,7,8,9-hexahydropyrido[2,1-c][1,2,4]thiadiazine 2,2-dioxide] | – | 76% |
| [2H]C1(c2ccc(-c3ccccc3)c(F)c2)NCCN2CCS(=O)(=O)N=C21 (stereo not shown) [Example 348, 9-(2-fluorobiphenyl-4-yl)(9-^2H)-3,4,6,7,8,9-hexahydropyrazino[2,1-c][1,2,4]thiadiazine 2,2-dioxide Hydrochloride] | – | 64% |
| CCCOc1ccc(C2=CC=CN3CCS(=O)(=O)N=C23)cc1F [Example 349, 9-(3-fluoro-4-propoxyphenyl)-3,4-dihydropyrido[2,1-c][1,2,4]thiadiazine 2,2-dioxide] | – | 83% |
| CCCOc1ccc(C2CCCN3CCS(=O)(=O)N=C23)cc1F (stereo not shown) [Example 350, 9-(3-fluoro-4-propoxyphenyl)-3,4,6,7,8,9-hexahydropyrido[2,1-c][1,2,4]thiadiazine 2,2-dioxide] | – | 74% |
| CCCCOc1ccc(C2CCCN3CCS(=O)(=O)N=C23)cc1F (stereo not shown) [Example 352, 9-(4-butoxy-3-fluorophenyl)-3,4,6,7,8,9-hexahydropyrido[2,1-c][1,2,4]thiadiazine 2,2-dioxide] | – | 76% |
| O=S1(=O)CCN2CCCC(c3ccc(Oc4ccc(F)cc4)cc3)C2=N1 (stereo not shown) [Example 357, 9-[4-(4-fluorophenoxy)phenyl]-3,4,6,7,8,9-hexahydropyrido[2,1-c][1,2,4]thiadiazine 2,2-dioxide] | – | 77% |
| CC(C)Oc1ccc(C2=CC=CN3CCS(=O)(=O)N=C23)cc1F [Example 361, 9-[3-fluoro-4-(1-methylethoxy)phenyl]-3,4-dihydropyrido[2,1-c][1,2,4]thiadiazine 2,2-dioxide] | – | 85% |
| O=S1(=O)CCN2C=CC=C(c3ccc(C4(F)COC4)cc3)C2=N1 [Example 396, 9-[4-(3-fluorooxetan-3-yl)phenyl]-3,4-dihydropyrido[2,1-c][1,2,4]thiadiazine 2,2-dioxide] | – | 82% |
| O=S1(=O)CCN2C=CC=C(c3ccc(N4CCOCC4)cc3)C2=N1 [Example 397, 9-(4-morpholin-4-ylphenyl)-3,4-dihydropyrido[2,1-c][1,2,4]thiadiazine 2,2-dioxide] | – | 83% |
| CC(=O)c1ccc(C2=CC=CN3CCS(=O)(=O)N=C23)cc1 [Example 400, 1-[4-(2,2-dioxido-3,4-dihydropyrido[2,1-c][1,2,4]thiadiazin-9-yl)phenyl]ethanone] | – | 83% |
| CSc1ccc(C2=CC=CN3CCS(=O)(=O)N=C23)cc1 [Example 408, 9-[4-(methylsulfanyl)phenyl]-3,4-dihydropyrido[2,1-c][1,2,4]thiadiazine 2,2-dioxide] | – | 85% |
| CC(C)(C)Oc1ccc(C2=CC=CN3CCS(=O)(=O)N=C23)cc1 [Example 411, 9-(4-tert-butoxyphenyl)-3,4-dihydropyrido[2,1-c][1,2,4]thiadiazine 2,2-dioxide] | – | 86% |
| Cn1ccc2cc(C3=CC=CN4CCS(=O)(=O)N=C34)ccc21 [Example 412, 9-(1-methyl-1H-indol-5-yl)-3,4-dihydropyrido[2,1-c][1,2,4]thiadiazine 2,2-dioxide] | – | 91% |
| Cc1ccc(C2=CC=CN3CCS(=O)(=O)N=C23)cc1F [Example 423, 9-(3-fluoro-4-methylphenyl)-3,4-dihydropyrido[2,1-c][1,2,4]thiadiazine 2,2-dioxide] | – | 80% |
| O=S1(=O)CCN2CCCC(c3ccc(Oc4ccccc4Cl)cc3)C2=N1 (stereo not shown) [Example 433, 9-[4-(2-chlorophenoxy)phenyl]-3,4,6,7,8,9-hexahydropyrido[2,1-c][1,2,4]thiadiazine 2,2-dioxide] | – | 55% |
| O=S1(=O)CCN2CCCC(c3ccc(Oc4ccc(F)c(Cl)c4)cc3)C2=N1 (stereo not shown) [Example 447, 9-[4-(3-chloro-4-fluorophenoxy)phenyl]-3,4,6,7,8,9-hexahydropyrido[2,1-c][1,2,4]thiadiazine 2,2-dioxide] | – | 78% |
| COc1ccc2ccc(OC3CCCN4CCS(=O)(=O)N=C34)cc2c1 (stereo not shown) [Example 462, 9-[(7-methoxynaphthalen-2-yl)oxy]-3,4,6,7,8,9-hexahydropyrido[2,1-c][1,2,4]thiadiazine 2,2-dioxide] | – | 69% |
